Laboratory results: ChEMBL document CHEMBL5244221, “Synthesis and structure-activity relationship studies of cruzain and rhodesain inhibitors” (Eur J Med Chem, 2018)

System: Trypanosoma cruzi
Assay: Antitrypanosomal activity against Trypanosoma cruzi
Format: functional, organism-based
Conditions: not given

Row | EC50 | SMILES
1 | 1300 nM | Cc1nn(C)c2cc(N3CCN(C(=O)[C@@H]4CCCC[C@H]4C(=O)NC4(C#N)CC4)[C@H](C)C3)ccc12
2 | 120 nM | N#CC1(NC(=O)[C@H](Cc2ccccc2)N[C@H](c2ccccc2)C(F)(F)F)CC1

Target: T1, Rhodesain (Trypanosoma brucei rhodesiense, UniProt Q95PM0)
T1 sequence (Q95PM0 whole entry): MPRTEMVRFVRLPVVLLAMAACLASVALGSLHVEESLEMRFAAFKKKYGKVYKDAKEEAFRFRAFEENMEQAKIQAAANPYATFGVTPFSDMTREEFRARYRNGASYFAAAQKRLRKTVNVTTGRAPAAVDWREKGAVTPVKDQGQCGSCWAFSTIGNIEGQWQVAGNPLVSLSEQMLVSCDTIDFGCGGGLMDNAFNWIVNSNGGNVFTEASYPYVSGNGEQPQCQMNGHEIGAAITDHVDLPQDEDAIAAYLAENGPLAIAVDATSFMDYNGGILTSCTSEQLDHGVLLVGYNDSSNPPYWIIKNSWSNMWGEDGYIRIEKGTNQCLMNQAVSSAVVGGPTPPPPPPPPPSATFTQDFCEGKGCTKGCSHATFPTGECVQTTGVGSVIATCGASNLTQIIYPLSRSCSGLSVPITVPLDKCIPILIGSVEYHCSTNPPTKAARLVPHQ
Assay: Inhibition of Trypanosoma brucei rhodesiense rhodesain
Conditions: not given

Row | SMILES | IC50
3 | Clc1ccc2c(NCCN3CCOCC3)ccnc2c1 | 61000 nM
4 | OCCNc1ccnc2cc(Cl)ccc12 | 58000 nM
5 | O=C(CNc1ccnc2cc(Cl)ccc12)N1CCOCC1 | 48000 nM
6 | CCOC(=O)/C=C/[C@@H](O)[C@H](CCc1ccccc1)NC(=O)[C@H](Cc1ccccc1)NC(=O)OCc1ccccc1 | 20000 nM
7 | CCCNc1ccnc2cc(Cl)ccc12 | 34200 nM
8 | OCCCNc1ccnc2cc(Cl)ccc12 | 72000 nM
9 | CCOC(=O)/C=C\C(=O)[C@H](CC(C)C)NC(=O)[C@H](Cc1ccccc1)NC(=O)OCc1ccccc1 | 16.4 nM
10 | Clc1ccc2c(NCc3ccccc3)ccnc2c1 | 34000 nM
11 | NCCNc1ccnc2cc(Cl)ccc12 | 126000 nM

Target: T2, Cruzipain (Trypanosoma cruzi, UniProt P25779)
T2 sequence (P25779 whole entry): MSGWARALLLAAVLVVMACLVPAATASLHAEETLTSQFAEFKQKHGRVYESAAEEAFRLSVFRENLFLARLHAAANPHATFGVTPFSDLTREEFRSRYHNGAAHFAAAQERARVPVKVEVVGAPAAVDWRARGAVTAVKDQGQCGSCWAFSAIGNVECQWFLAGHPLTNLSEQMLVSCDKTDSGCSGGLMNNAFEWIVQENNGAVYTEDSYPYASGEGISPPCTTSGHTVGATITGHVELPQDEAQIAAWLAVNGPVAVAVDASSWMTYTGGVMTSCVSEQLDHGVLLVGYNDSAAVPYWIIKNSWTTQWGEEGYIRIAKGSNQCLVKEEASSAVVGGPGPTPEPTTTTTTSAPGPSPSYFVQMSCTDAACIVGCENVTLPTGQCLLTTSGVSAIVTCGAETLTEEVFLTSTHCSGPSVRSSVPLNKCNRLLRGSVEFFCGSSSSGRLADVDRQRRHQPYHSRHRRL
Assay: Binding affinity to Trypanosoma cruzi Cruzain assessed as inhibition constant
Conditions: not given

Row | Ki | SMILES
12 | 80 nM | O=C(COc1ccc2ccccc2c1Br)NCCc1nc2ccccc2[nH]1
13 | 251 nM | N#CCNC(=O)[C@H](Cc1ccccc1)NC(=O)c1cc(Br)ccn1

System: Trypanosoma brucei
Assay: Antitrypanosomal activity against Trypanosoma brucei assessed as parasite growth inhibition
Format: functional, organism-based
Conditions: not given

Row | EC50 | SMILES
14 | 390 nM | CCCCn1cnc2c(Cc3ccc(OC)cc3)nc(C#N)nc21
15 | 240 nM | N#Cc1nc(Cc2ccccc2)c2ncn(CC3CCCCO3)c2n1 (stereo not given)
16 | 260 nM | N#Cc1nc(Cc2ccccc2)c2ncn(Cc3cccc(C(F)(F)F)c3)c2n1
17 | 310 nM | N#Cc1nc(Cc2ccc(Cl)cc2)c2ncn(CCCO)c2n1
18 | 270 nM | COc1ccc(Cn2cnc3c(Cc4ccc(Cl)cc4)nc(C#N)nc32)cc1
19 | 260 nM | N#Cc1nc(Cc2ccc(Cl)c(Cl)c2)c2ncn(Cc3ccccc3)c2n1
20 | 330 nM | N#Cc1nc(C2CCCCC2)c2ncn(Cc3ccccc3)c2n1
21 | 340 nM | N#Cc1nc(Cc2ccc(Cl)cc2)c2ncn(Cc3cccc(C(F)(F)F)c3)c2n1

The remaining lines, values behind:

Row | SMILES | EC50
22 | CCCCn1cnc2c(Cc3ccc(Cl)c(Cl)c3)nc(C#N)nc21 | 180 nM
23 | CCCCn1cnc2c(Cc3cccc(C)c3)nc(C#N)nc21 | 270 nM
24 | N#Cc1nc(Cc2ccc(Cl)c(Cl)c2)c2ncn(CCCO)c2n1 | 110 nM
25 | COC(CCn1cnc2c(Cc3ccc(Cl)c(Cl)c3)nc(C#N)nc21)OC | 220 nM
26 | COCCCn1cnc2c(Cc3ccc(Cl)c(Cl)c3)nc(C#N)nc21 | 150 nM
27 | N#Cc1nc(Cc2ccc(Cl)c(Cl)c2)c2ncn(CCCCCO)c2n1 | 60 nM

Target: T1, Rhodesain
Assay: Inhibition of Trypanosoma brucei rhodesiense rhodesain expressed in Pichia pastoris measured for 30 mins using Cbz-Phe-Arg-AMC as substrate
Conditions: not given

Row | Ki | SMILES
28 | 6 nM | Cc1nc(-c2ccccc2)sc1C(=O)N[C@H](/C=C/S(=O)(=O)c1ccccc1)CCc1ccccc1

Target: T2, Cruzipain
Assay: Inhibition of Trypanosoma cruzi Cruzain
Conditions: not given

Row | IC50 | SMILES
29 | 77500 nM | O=C(COCc1ccccc1Br)NCCc1nc2ccccc2[nH]1
30 | 2500 nM | Clc1ccc2[nH]c3c(NCCCN4CCOCC4)ncnc3c2c1

System: Trypanosoma cruzi
Assay: Antitrypanosomal activity against Trypanosoma cruzi assessed as reduction in parasite growth
Format: functional, organism-based
Conditions: not given

Row | SMILES | IC50
31 | Clc1ccc2c(NCCN3CCOCC3)ccnc2c1 | > 250000 nM
32 | OCCN1CCN(c2ccnc3cc(Cl)ccc23)CC1 | > 250000 nM
33 | NCCCNc1ccnc2cc(Cl)ccc12 | > 250000 nM
34 | OCCNc1ccnc2cc(Cl)ccc12 | > 250000 nM
35 | O=C(CNc1ccnc2cc(Cl)ccc12)N1CCOCC1 | > 250000 nM
36 | OCCCNc1ccnc2cc(Cl)ccc12 | 6500 nM
37 | O=C(COCc1ccccc1Br)NCCc1nc2ccccc2[nH]1 | 34600 nM

Target: Cathepsin S (Homo sapiens, UniProt P25774)
Sequence (P25774 whole entry): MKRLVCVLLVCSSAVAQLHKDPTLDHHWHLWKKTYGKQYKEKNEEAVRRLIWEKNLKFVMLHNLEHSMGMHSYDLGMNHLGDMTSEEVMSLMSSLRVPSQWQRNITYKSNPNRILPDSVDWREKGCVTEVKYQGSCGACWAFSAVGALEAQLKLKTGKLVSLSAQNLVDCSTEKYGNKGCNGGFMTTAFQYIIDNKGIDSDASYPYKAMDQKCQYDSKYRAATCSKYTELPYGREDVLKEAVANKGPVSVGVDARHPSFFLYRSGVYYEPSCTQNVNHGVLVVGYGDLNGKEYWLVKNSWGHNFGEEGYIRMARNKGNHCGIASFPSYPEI
Assay: Binding affinity to Cathepsin S (unknown origin) assessed as inhibition constant measured after 22 hrs
Conditions: not given

Row | Ki | SMILES
38 | 360 nM | O=C(COc1ccccc1F)NCCc1nc2ccccc2[nH]1
39 | 48 nM | O=C(COc1ccccc1I)NCCc1nc2ccccc2[nH]1
40 | 220 nM | N#Cc1ccccc1OCC(=O)NCCc1nc2ccccc2[nH]1

System: not listed separately
Assay: Lipophilicity, logP of compound
Format: physicochemical
Conditions: octanol/water

Row | logP | SMILES
41 | 5.8 | CCCCC(C(=O)COc1c(F)c(F)cc(F)c1F)n1cc([C@@](C)(NCc2ccc3ncccc3c2)C(C)C)nn1 (stereo not given in full)

System: Trypanosoma brucei brucei
Assay: Antitrypanosomal activity against Trypanosoma brucei brucei assessed as parasite growth inhibition
Format: functional, organism-based
Conditions: not given

Row | EC50 | SMILES
42 | 1180 nM | O=C(N[C@@H](Cc1ccccc1)C(=O)N[C@H](/C=C/S(=O)(=O)c1ccccc1)CCCCNS(=O)(=O)c1ccc2ccccc2c1)OCc1ccccc1
43 | 1880 nM | O=C(N[C@@H](Cc1ccccc1)C(=O)N[C@H](/C=C/S(=O)(=O)c1ccccc1)CCCCn1nnc2ccccc21)OCc1ccccc1
44 | 1220 nM | CCCCCCS(=O)(=O)NCCCC[C@@H](/C=C/S(=O)(=O)c1ccccc1)NC(=O)[C@H](Cc1ccccc1)NC(=O)OCc1ccccc1

System: Trypanosoma cruzi
Assay: Antitrypanosomal activity against Trypanosoma cruzi assessed as inhibition of growth incubated for 4 days by resazurin dye based assay
Format: functional, organism-based
Conditions: 96 h

Row | EC50 | SMILES
45 | 2510 nM | CC(C)(F)C[C@H](N[C@@H](c1ccc(-c2ccc(S(C)(=O)=O)cc2)cc1)C(F)(F)F)C(=O)NC1(C#N)CC1 [ODANACATIB]
